Test results: patent publication US5726012A, “Rapid, high capacity nucleic acid based assay” (E. I. du Pont de Nemours and Company, priority 1994, dated 1998)
Values after ≈ are worked out from the molar mass of the structure shown. Like-named read-outs stand apart in the source and are kept apart here.

Tests used:
[1] = system: HIV RF (HIV-1 RNA) in MT-2 cells; assay: Quantitation of cell associated HIV-1 RNA in infected MT-2 cells (correlation study); assay type: cell-based, HIV-1 (strain RF); details: for IC90 for HIV-1 RNA compared with IC90 for yield of infectious virus / cell associated RNA: 72 hours, MT-2 cells, HIV RF; for IC90: Human immunodeficiency virus 1, MT2, 72 h, 72 hrs after infection
Procedure: HIV-1 infected cell lysates from MT-2 cells grown for 24, 48 and 72 hours after infection with different initial multiplicities of infection (MOI, e.g., TCID 50 per cell) of HIV-1RF were prepared by the cell pelleting method as described in Example 5. The tissue culture infectious dose (TCID 50) for HIV-1 RF stocks were determined in MT-2 cells by a modification of the method of Johnson et al., "Infectivity Assay", Techniques in HIV Research, Aldovina et al. (1990) wherein the tissue culture medium was not changed after four days. 40 μl of the lysate and 5 μl of 1 μM biotinylated `pol` oligo were combined with GED to a final volume of 100 μl and a GED concentration of 3M and a final biotinylated `pol` oligo concentration of 50 nM. Hybridization was carried out overnight at 37° C. in sealed polypropylene tubes. Each sample was diluted three-fold with deionized water to a final GED concentration of 1M and aliquots (120 μl) transferred to streptavidin coated microtiter plate wells. The biotin oligo-RNA complex solution was incubated with the immobilized streptavidin for two hours at room temperature, after which the plates were washed six times with DuPont ELISA plate wash buffer (phosphate buffered saline (PBS)/0.05% Tween 20) with a Denley plate washer. A second hybridization was carried out by adding 120 μl of hybridization cocktail containing 4× standard saline citrate (0.15M NaCl, 0.015 sodium citrate) (SSC), 0.66% Triton X-100 and 6.66% deionized formamide, 1 mg/ml bovine serum albumin (BSA) and 5 nM `pol` AP reporter oligo to each well. After hybridization for one hour at 37° C., the plate was again washed six times in PBS/0.05% Tween 20. Alkaline phosphatase activity was detected by addition of 100 μl of substrate detection buffer, consisting of: 0.2 mM 4-methylumbelliferyl phosphate (MUBP, JBL Scientific) in 2.5M diethanolamine pH 8.9 (JBL), 10 mM MgCl2, 5 mM Zinc acetate dihydrate, and 5 mM n-hydroxyethyl-ethylene-diamine-triacetic acid. The plates were incubated at 37° C. Fluorescence was measured using a microplate fluorometer (Dynateck) exciting at 365 nm and emitting at 450 nm. […] At MOI's greater than 1 for cells cultured 72 hours after infection the level of HIV-1RNA was diminished by cell death that occurs as a result of extensive virus replication.
MT-2 cells were infected by resuspension in medium (Dulbecco's Modified Eagles, 5% Fetal calf serum, 50 ug/ml glutamine, 50 ug/ml gentamycin) containing either 1 ×10^6 TCID 50/ ml (FIGS. 7 and 9) or 2.5×10^5 TCID 50/ml of HIV RF virus (FIGS. 8 and 9) to a final concentration of 5×10^5 cells/ml, with or without various concentrations of AZT or P9941 which is (2S,3R,4R, 5S)-N,N'-[(2-pyridylacetyl)-L-isoleucyl]-2,5-diamino-1,6-diphenyl-hexane-3,4-diol as described in WO91/18866, the disclosure of which is incorporated by reference. After incubation for four hours at 37° C., the cells were pelleted, the supernatant medium removed, and cells resuspended in an equal volume of medium ± compound without added virus. Culture was continued for a total of 72 hours at 37° C. after which time cells were pelleted, lysed by addition of 5M GED, and stored frozen at -70° C. until quantitation of HIV-1 RNA by the method described in Example 8 except that the `gag` capture/reporter probe set as described in Example 2 was employed. Supernatant medium from each sample was frozen at -120° C. until determination of yield of infectious virus by plaque assay as described in Example 11. […] Both cell associated RNA and yield of infectious virus were reduced by treatment with either AZT, a reverse transcriptase inhibitor, or P9941, an inhibitor of the HIV encoded protease. The concentration of AZT or P9941 required to inhibit HIV-1 RNA by 90% (IC90) was equivalent to the concentration of AZT or P9941 required to inhibit the yield of infectious virus by 90% (IC90). The concentrations of antiviral compound required to inhibit either HIV-1 RNA or yield of infectious virus by 90% (IC90) were very similar. […]

[2] = system: HIV RF (infectious virus) in MT-2 cells; assay: Yield of infectious virus by plaque assay (yield reduction assay) in MT-2 cells; assay type: cell-based, HIV-1 (strain RF); details: for yield of infectious virus: 72 hours, MT-2 cells, HIV RF; for IC90: Human immunodeficiency virus 1, MT2, 72 h
Procedure: Test compounds were dissolved in dimethylsulfoxide to 5 mg/ml and serially diluted into RPMI 1640 medium to 10 times the desired final concentration. MT-2 cells (5×10^5 /ml) in 2.3 ml were mixed with 0.3 ml of the appropriate test compound solution and allowed to sit for 30 minutes at room temperature. HIV-1 IIIB or HIV-1 RF virus (~5×10^5 plaque forming units/ml) in 0.375 ml was added to the cell and compound mixtures and incubated for one hour at 36° C. The mixtures were centrifuged at 1000 rpm for 10 minutes and the supernatants containing unattached virus were discarded. The cell pellets were suspended in fresh RPMI 1640 containing the appropriate concentrations of test compound and placed in a 36° C., 4% CO2 incubator. Virus was allowed to replicate for three days. Cultures were centrifuged for 10 minutes at 1000 rpm and the supernatants containing cell free progeny virus removed for plaque assay. Virus suspensions were serially diluted in RPMI 1640 and 1.0 ml of each dilution added to 9 ml of MT-2 cells in RPMI 1640. Cells and virus were incubated for three hours at 36° C. to allow for efficient attachment of the virus to cells. Each virus and cell mixture was aliquoted equally to two wells of a six well poly-L-lysine coated culture plate and incubated overnight at 36° C., 4% CO2. Liquid and unattached cells were removed prior to the addition of 1.5 ml of RPMI 1640 with 0.75% (w/v) Seaplaque agarose (FMC Corp) and 5% FCS. Plates were incubated for three days and a second RPMI 1640/agarose overlay added. After an additional three days at 36° C., 4% CO2, a final overlay of PBS with 0.75% Seaplaque agarose and 1 mg/ml MTT was added. The plates were incubated overnight at 36° C. Clear plaques on a purple background were counted and the number of plaque forming units of virus calculated for each sample. The virus titers of the progeny virus produced in the presence or absence of test compounds was determined by plaque assay as described above. The antiviral activity of test compounds was determined by the percent reduction in the virus titer with respect to virus grown in the absence of any inhibitors.
MT-2 cells were infected by resuspension in medium (Dulbecco's Modified Eagles, 5% Fetal calf serum, 50 ug/ml glutamine, 50 ug/ml gentamycin) containing either 1 ×10^6 TCID 50/ ml (FIGS. 7 and 9) or 2.5×10^5 TCID 50/ml of HIV RF virus (FIGS. 8 and 9) to a final concentration of 5×10^5 cells/ml, with or without various concentrations of AZT or P9941 which is (2S,3R,4R, 5S)-N,N'-[(2-pyridylacetyl)-L-isoleucyl]-2,5-diamino-1,6-diphenyl-hexane-3,4-diol as described in WO91/18866, the disclosure of which is incorporated by reference. After incubation for four hours at 37° C., the cells were pelleted, the supernatant medium removed, and cells resuspended in an equal volume of medium ± compound without added virus. Culture was continued for a total of 72 hours at 37° C. after which time cells were pelleted, lysed by addition of 5M GED, and stored frozen at -70° C. until quantitation of HIV-1 RNA by the method described in Example 8 except that the `gag` capture/reporter probe set as described in Example 2 was employed. Supernatant medium from each sample was frozen at -120° C. until determination of yield of infectious virus by plaque assay as described in Example 11. […] Both cell associated RNA and yield of infectious virus were reduced by treatment with either AZT, a reverse transcriptase inhibitor, or P9941, an inhibitor of the HIV encoded protease. The concentration of AZT or P9941 required to inhibit HIV-1 RNA by 90% (IC90) was equivalent to the concentration of AZT or P9941 required to inhibit the yield of infectious virus by 90% (IC90). The concentrations of antiviral compound required to inhibit either HIV-1 RNA or yield of infectious virus by 90% (IC90) were very similar. For both HIV RNA and yield of infectious virus, this IC90 value was affected by the initial MOI (Table 1).

IC90 ([2]; 72 hrs after infection, MOI = 0.5, read-out: IC90, PFU)	IC90 ([2]; 72 hrs after infection, MOI = 2.0, read-out: IC90, PFU)	Compound	IC90 for HIV-1 RNA compared with IC90 for yield of infectious virus [1]	cell associated RNA [1]	IC90 ([1]; MOI = 0.5)	IC90 ([1]; MOI = 2.0)	yield of infectious virus [2]	IC90 ([2]; read-out: IC90, PFU, 72 hrs after infection, MOI = 0.5)	IC90 ([2]; read-out: IC90, PFU, 72 hrs after infection, MOI = 2.0)
–	–	Cc1cn([C@H]2C[C@H](N=[N+]=[N-])[C@@H](CO)O2)c(=O)[nH]c1=O [AZT]	equivalent	reduced	0.12 µg/mL (≈ 0.449 µM)	0.2 µg/mL (≈ 0.748 µM)	reduced	0.09 µg/mL (≈ 0.337 µM)	0.28 µg/mL (≈ 1.05 µM)
0.38 µg/mL (≈ 0.497 µM)	1 µg/mL (≈ 1.31 µM)	CC[C@H](C)[C@H](NC(=O)Cc1ccccn1)C(=O)N[C@@H](Cc1ccccc1)[C@@H](O)[C@H](O)[C@H](Cc1ccccc1)NC(=O)[C@@H](NC(=O)Cc1ccccn1)[C@@H](C)CC [P9941, (2S,3R,4R, 5S)-N,N'-[(2-pyridylacetyl)-L-isoleucyl]-2,5-diamino-1,6-diphenyl-hexane-3,4-diol]	equivalent	reduced	0.55 µg/mL (≈ 0.719 µM)	1.5 µg/mL (≈ 1.96 µM)	reduced	–	–
